Reference: US20220144775A1, “HYDRAZIDE COMPOUND AND KINASE INHIBITOR” (NISSAN CHEMICAL CORPORATION, priority 2019, published 2022)

Key:
LATS1 = target: T1, LATS1 (Homo sapiens, UniProt O95835); experiment: Kinase inhibitory activity against LATS1 (ADP quantification); type: biochemical; conditions: ATP 400 μM, read-out: kinase inhibitory rate; for inhibition at 0.1 µM: final concentration 100 nM; for inhibition at 1 µM: final concentration 1000 nM
T1 construct: purchased Carna Biosciences
T1 sequence (O95835 1-1130): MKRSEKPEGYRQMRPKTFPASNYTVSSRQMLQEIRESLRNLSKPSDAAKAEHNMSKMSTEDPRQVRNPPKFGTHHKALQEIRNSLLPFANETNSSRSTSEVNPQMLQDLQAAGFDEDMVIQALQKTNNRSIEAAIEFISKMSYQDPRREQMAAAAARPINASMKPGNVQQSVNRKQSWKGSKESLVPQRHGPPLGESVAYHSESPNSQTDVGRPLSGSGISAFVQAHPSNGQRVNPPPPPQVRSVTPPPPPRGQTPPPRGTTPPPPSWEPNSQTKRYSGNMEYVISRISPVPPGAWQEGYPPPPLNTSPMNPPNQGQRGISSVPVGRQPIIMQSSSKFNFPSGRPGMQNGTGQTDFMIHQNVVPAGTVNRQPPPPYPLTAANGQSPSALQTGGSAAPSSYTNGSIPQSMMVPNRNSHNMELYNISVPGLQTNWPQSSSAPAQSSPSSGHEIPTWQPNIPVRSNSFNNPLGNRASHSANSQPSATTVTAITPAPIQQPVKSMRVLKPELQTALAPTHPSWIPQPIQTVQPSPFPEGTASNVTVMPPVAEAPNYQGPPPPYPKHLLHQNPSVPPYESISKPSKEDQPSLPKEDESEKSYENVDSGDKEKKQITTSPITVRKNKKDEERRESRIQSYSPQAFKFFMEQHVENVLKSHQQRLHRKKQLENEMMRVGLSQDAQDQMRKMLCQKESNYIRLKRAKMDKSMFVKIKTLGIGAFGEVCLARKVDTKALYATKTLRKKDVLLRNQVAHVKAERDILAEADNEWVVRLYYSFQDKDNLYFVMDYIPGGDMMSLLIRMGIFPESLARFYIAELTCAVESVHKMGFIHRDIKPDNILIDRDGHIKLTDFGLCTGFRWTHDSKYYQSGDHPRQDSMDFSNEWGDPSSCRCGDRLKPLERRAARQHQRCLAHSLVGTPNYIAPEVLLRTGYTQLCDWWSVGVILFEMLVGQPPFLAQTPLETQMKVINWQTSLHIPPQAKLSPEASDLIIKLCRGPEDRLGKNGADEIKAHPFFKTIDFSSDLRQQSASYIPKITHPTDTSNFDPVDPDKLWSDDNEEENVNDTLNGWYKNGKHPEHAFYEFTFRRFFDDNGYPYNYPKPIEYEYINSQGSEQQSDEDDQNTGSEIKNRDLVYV
Experimental: (§1) Evaluation of the inhibitory activity (calculation of kinase inhibitory rate) of the compound of the present invention against LATS1 and LATS2 (manufactured by Carna Biosciences) was performed. The activity was measured using the Kinase Assay method described below. The test concentration of the compound of the present invention was set such that the final concentration was 100 nM or 1000 nM.
(§2) As the analysis method of the data, the mean signal of the control well containing reaction components other than the compound of the present invention was set to 0% inhibition, the mean signal without enzyme addition was set to 100% inhibition, and the inhibition rate was calculated from the mean signal of 2 wells of each compound.
(§3) 2 μL of a compound of the present invention solution at 2.5-fold concentration, 1 μL of substrate at 5-fold concentration (SGKtide: NH2-CKKRNRRLSVA-COOH, manufactured by SignalChem), ATP (manufactured by Sigma-Aldrich), MgCl2 (manufactured by FUJIFILM Wako Pure Chemical Corporation) solution (final concentration 10 μM, 400 μM and 5 mM, respectively), and 2 μL of kinase solution at 2.5-fold concentration (final concentration of LATS1 or LATS2 5 μg/mL), each prepared with assay buffer (20 mM HEPES, 0.01% Triton X-100, 2 mM DTT, 50 μg/mL BSA, pH 7.5), were mixed in the wells of a polypropylene 384-well plate (manufactured by Greiner Bio-One, #784900) and reacted at room temperature for 5 hr. To the solution was added 5 μL detection solution [Fluorospark (registered trade mark) Kinase/ADP Multi-Assay Kit; manufactured by FUJIFILM Wako Pure Chemical Corporation], and the mixture was reacted at room temperature for 30 min. Successively, 5 μL of a reaction quenching liquid [Fluorospark (registered trade mark) Kinase/ADP Multi-Assay Kit; manufactured by FUJIFILM Wako Pure Chemical Corporation] was added to discontinue the reaction. Thereafter, the ADP concentration of the reaction solution was quantified by EnSpire (manufactured by PerkinElmer) to detect the kinase reaction.

LATS2 = target: T2, LATS2 (Homo sapiens, UniProt Q9NRM7); experiment: Kinase inhibitory activity against LATS2 (ADP quantification); type: biochemical; conditions: ATP 400 μM, read-out: kinase inhibitory rate; for inhibition at 0.1 µM: final concentration 100 nM; for inhibition at 1 µM: final concentration 1000 nM
T2 construct: purchased Carna Biosciences
T2 sequence (Q9NRM7 1-1088): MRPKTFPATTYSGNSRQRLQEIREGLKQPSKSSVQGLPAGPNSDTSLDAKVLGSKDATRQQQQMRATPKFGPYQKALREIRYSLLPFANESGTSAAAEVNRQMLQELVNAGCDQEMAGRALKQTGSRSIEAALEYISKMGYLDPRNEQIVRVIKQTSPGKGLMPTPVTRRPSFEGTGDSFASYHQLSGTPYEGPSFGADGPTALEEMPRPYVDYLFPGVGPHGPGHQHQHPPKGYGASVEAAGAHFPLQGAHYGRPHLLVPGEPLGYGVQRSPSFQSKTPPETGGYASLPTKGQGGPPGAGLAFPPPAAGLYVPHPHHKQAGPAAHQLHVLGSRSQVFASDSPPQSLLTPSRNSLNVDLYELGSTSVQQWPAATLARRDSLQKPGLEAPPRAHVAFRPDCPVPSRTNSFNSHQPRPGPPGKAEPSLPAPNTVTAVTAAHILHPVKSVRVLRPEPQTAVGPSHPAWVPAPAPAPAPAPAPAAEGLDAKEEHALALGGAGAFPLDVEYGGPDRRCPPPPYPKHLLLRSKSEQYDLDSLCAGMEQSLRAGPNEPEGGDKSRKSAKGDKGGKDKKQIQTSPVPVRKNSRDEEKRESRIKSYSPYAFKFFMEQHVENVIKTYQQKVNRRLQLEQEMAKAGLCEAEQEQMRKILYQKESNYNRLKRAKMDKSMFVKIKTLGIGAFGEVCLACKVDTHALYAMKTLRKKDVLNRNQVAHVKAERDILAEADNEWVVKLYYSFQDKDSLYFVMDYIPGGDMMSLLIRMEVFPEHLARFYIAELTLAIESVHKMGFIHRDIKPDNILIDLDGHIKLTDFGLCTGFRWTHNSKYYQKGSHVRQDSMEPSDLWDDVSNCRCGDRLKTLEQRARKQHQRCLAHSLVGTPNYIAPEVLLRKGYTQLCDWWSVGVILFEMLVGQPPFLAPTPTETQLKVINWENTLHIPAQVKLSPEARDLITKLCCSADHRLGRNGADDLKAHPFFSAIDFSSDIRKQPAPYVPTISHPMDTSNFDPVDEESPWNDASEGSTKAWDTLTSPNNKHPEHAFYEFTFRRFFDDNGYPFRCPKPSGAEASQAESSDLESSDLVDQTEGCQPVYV
Experimental: as §1, §2, §3

YAP = YAP phosphorylation inhibitory action in SKOV3 (HTRF); type: cell-based, human; conditions: 10 μM, 1 hr, non-treatment 100%
Experimental: Human ovarian cancer cell line SKOV3 (manufactured by DS Pharma Biomedical Co., Ltd.) was precultured using a 15% FBS-containing McCoy's 5a medium (manufactured by Sigma-Aldrich) (single layer culture). The above-mentioned cells in the logarithmic growth phase were washed with PBS. A 0.25% (w/v) trypsin-1 mmol/L ethylenediaminetetraacetic acid (EDTA) solution (manufactured by FUJIFILM Wako Pure Chemical Corporation) was added and the adherent cells were incubated at 37° C. for 3 min and detached. The above-mentioned medium was added, and the cells were centrifuged and resuspended in the same medium.
According to the method of patent document 1 (WO 2014/017513), a composition of 10% FBS-containing DMEM medium (Phenol-red free, manufactured by FUJIFILM Wako Pure Chemical Corporation) containing 0.015% (w/v) deacylated gellan gum (KELCOGEL CG-LA, manufactured by SANSHO Co., Ltd.) was prepared using FCeM-series Preparation Kit (manufactured by FUJIFILM Wako Pure Chemical Corporation). Then, various cells prepared above were suspended in the above-mentioned medium composition (3D culture conditions) added with deacylated gellan gum or a medium without the addition (2D culture conditions), and seeded on a 50 μL/well (manufactured by Corning Incorporated, a 96 well flat bottom plate, #3585, 2D culture conditions) or 25 μL/well (manufactured by Corning Incorporated, 96 well low adhesion flat bottom plate, #3474) at 100000 cells/well. The plate was allowed to stand at 37° C. in a 5% CO2 incubator, and the compound of the present invention diluted with the medium at 2 or 6 times the final concentration, DMSO, or the medium alone was added to the plate 3 hr after the seeding at 50 μL/well (2D culture conditions) or 5 μL/well (3D culture conditions) to make the final concentration of each compound 10 μM. After culture at 37° C. in a 5% CO2 incubator for 1 hr, the supernatant was aspirated, supplemented Lysis buffer (1-fold concentration, manufactured by Cisbio, YAP-total kit or YAP phospho-S27 kit) (50 μL) was added under 2D culture conditions, and supplemented Lysys buffer (4-fold concentration) (10 μL) was added to the culture supernatant under 3D conditions, and the mixture was stirred by a plate shaker for 30 min. Thereafter, the plate was centrifuged, 16 μL of the supernatant was transferred to a 384-well white plate (Corning, #4512), and each antibody solution (pYAP d2 antibody or Total-YAP d2 antibody, and pYAP Cryptate antibody or Total-YAP Cryptate antibody) included in the kit was added at 4 μL/well in total, and the mixture was allowed to stand at room temperature overnight. As a blank control, pYAP Cryptate antibody or Total-YAP Cryptate antibody alone was added to cells free of stimulation with compound and the mixture was treated in the same manner. The next day, the wavelengths at 665 nm and 615′ nm were measured in the HTRF mode of EnVision (manufactured by PerkinElmer).
The obtained signal was calculated as follows. Ratio=signal (665 nm)/signal (615 nm)×10000, ΔR=Signal(Ratio)−Background fluorescence, and the relative phosphorylated YAP amount or total YAP amount for each compound when ΔR of the compound non-addition group (non-treatment) is 100% is shown in Tables 7 and 8 (2D culture), and Tables 9 and 10 (3D culture). From the results, it was shown that the compound of the present zo invention has a YAP phosphorylation inhibitory action under both 2D and 3D culture conditions.

Row | SMILES | inhibition at 0.1 µM (LATS1) | inhibition at 1 µM (LATS1) | inhibition at 0.1 µM (LATS2) | inhibition at 1 µM (LATS2) | phosphorylated YAP amount (%) (YAP; 2D culture conditions) | total YAP amount (%) (YAP; 2D culture conditions) | phosphorylated YAP amount (%) (YAP; 3D culture conditions) | total YAP amount (%) (YAP; 3D culture conditions)
1 | CC/C(=N\NC(=O)CNc1ccccn1)c1ccc(O)c(C)c1O [A-001, (E)-N′-(1-(2,4-dihydroxy-3-methylphenyl)propylidene)-2-(pyridin-2-ylamino)acetohydrazide] | ≥ 40% | ≥ 40% | ≥ 40% | ≥ 40% | – | – | – | –
2 | CC/C(=N\NC(=O)CNc1cccnc1)c1ccc(O)c(C)c1O [A-002] | – | – | – | – | 50% | 85% | 78% | 100%
3 | CC/C(=N\NC(=O)C(CC)Nc1cccnc1)c1ccc(O)c(C)c1O (stereo not drawn) [A-005] | – | – | – | – | 27% | 94% | 30% | 102%
4 | CC/C(=N\NC(=O)[C@@H](C)Nc1cncc(F)c1)c1ccc(O)c(C)c1O [A-007R] | – | – | – | – | 8% | 98% | 15% | 108%
5 | CC/C(=N\NC(=O)[C@@H](C)Nc1ccc(F)nc1)c1ccc(O)c(C)c1O [A-010] | – | – | – | – | 11% | 94% | 20% | 114%
6 | CC/C(=N\NC(=O)[C@@H](C)Nc1cncc(Cl)c1)c1ccc(O)c(C)c1O [A-011] | – | – | – | – | 46% | 91% | 55% | 98%
7 | CC/C(=N\NC(=O)[C@@H](C)Nc1ccc(Cl)nc1)c1ccc(O)c(C)c1O [A-012] | – | – | – | – | 19% | 87% | 23% | 103%
8 | CC/C(=N\NC(=O)[C@@H](C)Nc1cncc(C(F)(F)F)c1)c1ccc(O)c(C)c1O [A-013] | – | – | – | – | 42% | 91% | 49% | 96%
9 | CC/C(=N\NC(=O)[C@@H](C)Nc1cncnc1)c1ccc(O)c(C)c1O [A-017, (R,E)-N′-[1-(2,4-dihydroxy-3-methylphenyl)propylidene]-2-(pyrimidin-5-ylamino)propanehydrazide] | ≥ 40% | ≥ 40% | ≥ 40% | ≥ 40% | – | – | – | –
